The values that follow come from paper PMC12596218 (Journal of Lipid Research, 2025).

Read-outs that look alike come from different tables or passages of the source.

Test [1] has as its target T1, ASBT S294T/I295V (ASBT→mAsbt) (Homo sapiens, UniProt Q12908, I295V/S294T).
T1 construct: stably transfected with the full open reading frames of human NTCP, ASBT, SOAT, OATP1B1, OATP1B3, OATP2B1, and murine Asbt (mAsbt); expressed in transfected cells; host or cells: HEK293, stably transfected
T1 sequence (Q12908 1-348 S294T/I295V): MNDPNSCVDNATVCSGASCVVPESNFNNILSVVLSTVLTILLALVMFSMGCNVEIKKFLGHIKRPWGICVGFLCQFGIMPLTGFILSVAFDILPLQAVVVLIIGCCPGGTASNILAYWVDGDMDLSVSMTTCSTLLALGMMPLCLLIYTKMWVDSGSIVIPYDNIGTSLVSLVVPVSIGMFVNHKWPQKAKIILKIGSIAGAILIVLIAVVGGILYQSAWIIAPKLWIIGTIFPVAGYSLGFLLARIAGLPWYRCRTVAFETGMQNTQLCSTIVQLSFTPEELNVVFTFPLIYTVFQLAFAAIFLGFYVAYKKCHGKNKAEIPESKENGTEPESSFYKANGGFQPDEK
Kind of test: [3H]TC transport and inhibition assay, ASBT→mAsbt mutant in HEK293 cells. The test is classed as cell-based. The settings on record: for Inhibition curve/AUC of ASBT→mAsbt mutant compared to wild-type ASBT: 1 μM [3H]TC, 10 min, AUC combined from two experiments. Here is the method:
Amplification was performed on a peqSTAR XS PEQLAB PCR cycler (Peqlab) with Pfu DNA polymerase (M774A; Promega) in 18 cycles under the following conditions: initial denaturation for 2 min at 95°C, denaturation for 30 s at 95°C, annealing for 1 min at 55°C, extension for 8 min and 30 s at 72°C, final elongation for 10 min at 72°C and final hold at 4°C. After amplification, the products were digested with DpnI (ER1701; Thermo Fisher Scientific) for 1 h at 37°C and transformed into TOP10 chemically competent E. coli (Thermo Fisher Scientific). Plasmids were isolated using a GeneJET Plasmid Miniprep Kit (Thermo Fisher Scientific) according to the manufacturer's protocol, and the generated point mutations were verified by DNA sequencing (Seqlab Microsynth).
Cells were seeded onto poly-L-lysine-coated 96-well plates, induced with 1 μg/ml tetracycline, and grown to confluence over 72 h at 37°C. Then, cells were washed with tempered (37°C) phosphate-buffered saline (PBS, containing 137.0 mM NaCl, 2.7 mM KCl, 1.5 mM KH2PO4, and 7.3 mM Na2HPO4, at pH 7.4) and preincubated with 80 μl sodium transport buffer (STB, containing 142.9 mM NaCl, 4.7 mM KCl, 1.2 mM MgSO4, 1.2 mM KH2PO4, 1.8 mM CaCl2, and 20.0 mM HEPES, at pH 7.4) for 5 min at 37°C. For inhibition studies, the medium was replaced by 80 μl STB containing the respective inhibitor or solvent alone and cells were further incubated for 5 min at 37°C. Transport experiments were started by adding 20 μl of a 5-fold concentrated substrate solution (solved in STB). For transport experiments under sodium-free conditions the same buffer composition was used as for STB, but sodium chloride was substituted with equimolar concentrations of choline chloride as previously reported ([20], [24]). Transport experiments were stopped by washing twice with ice-cold PBS and the plates were kept cool on ice until adding the lysis buffer [1% sodium dodecyl sulfate (SDS) and 1 N NaOH]. Then, the cell-associated radioactivity of the respective tritium-labeled substrate or ligand was quantified by liquid scintillation counting using MicroScint-20 scintillation cocktail (Revvity) in a Packard Microplate Scintillation Counter TopCount NXT (Packard Instrument Company). For IC50 transport inhibition measurements, the mean uptake values measured in non-carrier-expressing HEK293 control cells were defined as 0% uptake control and were subtracted from all other values. Values from cells without inhibitor and solvent alone were set to 100%. Finally, all net transport data were expressed as uptake or binding as % of control. All transport or inhibition graphs were generated with GraphPad Prism 6 (GraphPad). Determination of half maximal inhibitory concentrations (IC50) was done by nonlinear regression analysis using the equation log (inhibitor) versus response—variable slope settings. All data points of the IC50 curves represent means ± SD of quadruplicate determinations. For Km measurements, BS uptake in the absence of sodium was regarded as carrier-independent unspecific uptake and was subtracted from the transport rates in the presence of sodium to obtain carrier-specific uptake rates (indicated as dashed lines). From the specific uptake rates, Michaelis Menten Km values were calculated by non-linear regression analysis.

For the next test, the system named is ASBT. The settings on record: cited from earlier work; for IC50: read-out: IC50 ASBT inhibition.

With `CCCCC1(CCCC)CS(=O)(=O)c2ccc(N(C)C)cc2[C@@H](c2ccc(OCCCC[N+]34CCN(CC3)CC4)cc2)[C@H]1O` [SC-435], in test [1], the “Inhibition curve/AUC of ASBT→mAsbt mutant compared to wild-type ASBT” value is “this effect was also observed”.

Turning to `CCCCC1(CCCC)CN(c2ccccc2)c2cc(SC)c(OCC(=O)N[C@@H](C(=O)NCC(=O)O)c3ccccc3)cc2S(=O)(=O)C1` [elobixibat], in test [1], the “Inhibition curve/AUC of ASBT→mAsbt mutant compared to wild-type ASBT” value is listed as “not different”. Moreover, in the test with ASBT (ref PMDA Goofice Report on the Deliberation Results), the IC50 was 0.53 nM. For the same compound, the “IC50 ratio for ASBT versus NTCP inhibition” value in the test on ASBT (reported by the PMDA, ref PMDA) was 0.0022.

With `CCCC[C@]1(CC)CS(=O)(=O)c2cc(CNC(CC(=O)O)CC(=O)O)c(OC)cc2[C@@H](c2ccccc2)N1` [linerixibat], the “Inhibition curve/AUC of ASBT→mAsbt mutant compared to wild-type ASBT” value in test [1] is given as “significantly reduced the AUC values”. Moreover, in test [1] (500 μM [3H]TC), the “Transport inhibition at highest substrate concentration” value was “full transport inhibition”. Besides, in test [1] ([3H]TC 0.3-500 μM), the “IC50 values at increasing substrate concentrations (in words)” value is “remained quite stable”.

Take `CCCCC1(CCCC)CS(=O)(=O)c2ccc(N(C)C)cc2[C@@H](c2ccc(OCc3ccc(C[N+]45CCN(CC4)CC5)cc3)cc2)[C@H]1O` [maralixibat]: the IC50 with ASBT (ASBT expressed in baby hamster kidney H-14 cell line, ref FDA NDA 214662 Livmarli) was 0.28 nM.

For the compound `CCCCC1(CCCC)CN(c2ccccc2)c2cc(SC)c(OCC(=O)N[C@@H](C(=O)N[C@@H](CC)C(=O)O)c3ccc(O)cc3)cc2S(=O)(=O)N1` [odevixibat], the “Inhibition curve/AUC of ASBT→mAsbt mutant compared to wild-type ASBT” value in test [1] is “not different”. The IC50 in the test with ASBT (ASBT-expressing HEK293 cells, ref EMA EPAR Risk management plan for odevixibat) is 0.13 nM.

A word on the IC50: it is the concentration that inhibits the measured activity by half.
